# Measurements reported in patent US10183059B2, “Method for treating microbial infection” (GENERAL BIOLOGICALS CORPORATION, priority 2015, dated 2019).
# No end group written: not given here.
# Columns and labels:
# [1] = tested on: C. dubliniensis; format: cell-based
# Experimental: (§1) The antimicrobial activities against clinical isolates and drug-resistant strains of P-113 and its derived peptides were examined. The present invention evaluated the effect of P-113 on 15 clinical isolates of fungi belonging to the genus Candida (see Table 1). Clinical isolates were cultivated overnight at 30° C. under shaking in a YPD cultural broth (1% yeast extract, 2% peptone and 2% glucose), cells were centrifuged and washed with YPD, then cultivated again in a YPD culture broth allowing to grow for 5 hours (initial optical density at 600 nm [OD600]˜0.5). Cells were washed with PBS and then collected by centrifugation, redissolved in a culture broth (modified RPMI 1640 medium, LYM), the cell concentration was adjusted to ˜0.1 [OD600]/ml and then treated with P-113. After the mixed solution was cultivated under shaking at 37° C. and 5% CO2 for 24 hours, absorbance measurement (OD value) was performed to determine the minimum inhibitory concentration (MIC).
# [2] = tested on: C. parapsilosis; format: cell-based
# Experimental: as §1
# [3] = Circular dichroism secondary structure in 85% TFE, BeStSel analysis; format: physicochemical; details: CD analyzed by BeStSel
# Experimental: The present invention utilized a Circular Dichroism Spectrometer (AVIV Company) to observe the secondary structure of the antimicrobial peptides. Circular dichoism spectra of P-113 and its derivatives were recorded over the wavelength range of 195-260 nm with readings every 1 nm by using a quartz cuvette having 1 mm optical path length. Ellipticities were represented as mean residue molar ellipticity (MRE). P-113, P-113Du and P-113Tri were dissolved in 85% trifluoroethanol (TFE) solution.
# [4] = tested on: Wild type (WT) Candida albicans; experiment: Salt and pH tolerance of candidacidal activity; format: cell-based
# Experimental: Wild type (WT) Candida albicans was cultivated in a YPD medium at 30° C. overnight and then transferred to 5 ml of fresh YPD culture broth, cultivated subsequently for another 5 hours. After the fungi were collected by centrifugation, washed with 12.5 mM sodium acetate twice, redissolved with 12.5 mM NaOAc to yield a fungal concentration of 1.5×10^6 cells/ml. Fifty microliters of liquid fungal suspension was taken out to mix with 50 μl of sequentially diluted antimicrobial peptides and placed in different wells of a 96-well plate allowing to react for 1 hour at 37° C. (as shown in FIG. 4(A). Then, 50 μl of liquid fungal mixture was taken out and 450 μl PBS was added to terminate the reaction. Finally, 25 μl was taken out and inoculated on a solid YPD medium.
# [5] = tested on: Candida albicans strain SC5314 biofilms; experiment: Biofilm cell viability, XTT reduction assay; format: cell-based; details: biofilm cells, 37° C., 1 hr
# Experimental: Candida albicans strain SC5314 was cultivated in a YPD medium overnight and then transferred to a fresh YPD culture broth, diluted until the concentration was 3×10^5 cells/ml. 100 μl of liquid fungal suspension was placed in a 96-well plate for cultivation at 37° C. for 24 hours, formed biofilms were washed with sodium acetate (12.5 mM). Then, sequence-diluted antimicrobial peptides P-113, P-113Du and P-113Tri (0-200 μM) were added, reacted at 37° C. for 1 hour, washed with PBS twice. The cellular activity of the biofilms was determined by using XTT (2,3-bis(2-methoxy-4-nitro-5-sulfophenyl)-2H-tetrazolium-5-carboxanilide) reduction assays to analyze the cell survival rate. To perform this reaction, XTT (0.5 mg/ml) and Menadione (0.5 μM) were dissolved in PBS and then added into a 96-well plate formed by biofilms, reacted at 30° C. for 30 minutes, the optical density was measured at wavelength 490 nm (OD490). The cellular activity of the biofilms was represented as a percentage.
# [6] = tested on: Candida albicans strain SC5314; experiment: Fungal suppression at various concentrations and reaction times, colony count; format: cell-based; details: 37° C., 12.5 mM NaOAc
# Experimental: To examine the activity of P-113 for killing fungus, fungal suppression assays were carried out at various concentrations or reaction times. Candida albicans strain SC5314 (wild type, WT) was cultivated in the Yeast extract Peptone Dextrose medium (YPD medium) at 30° C. overnight, transferred to 5 ml of fresh YPD culture broth, and then cultivated again for another 5 hours. After fungi were collected by centrifugation, the fungi were washed with 12.5 mM sodium acetate (NaOAc) twice, redissolved in each well of a 96-well plate with 12.5 mM NaOAc (1.5×10^6 cells in 0.1 ml of 12.5 mM NaOAc). Then, the fungi were treated with different concentrations of P-113 for different reaction times at 37° C. Around […] of Phosphate-buffered saline (PBS) was added into each well, took 25 μl of liquid fungi suspension out and inoculated on a solid YPD medium, after being cultivated at 30° C. for 24 hours, the number of colonies were counted.
# [7] = tested on: SC5314 strain of Candida albicans; experiment: Effect of cell wall disrupting agents on peptide activity, CFU; format: cell-based; details: Proteinase K 1 mg/ml, 30 min
# Experimental: The SC5314 strain of Candida albicans (wild type or WT) were grown overnight in YPD broth at 30° C. The overnight culture was then subcultured into fresh YPD medium and grown for 5 h. Cells were treated with Proteinase K (1 mg/ml) for 30 min or Zymolyase (5 mg/ml) for 1 h at 30° C., followed by reacting with different concentrations of the peptides for 1 h, respectively. After that, samples were serially diluted in phosphate-buffered saline (PBS) and 15 μl of each diluent was spotted onto YPD agar plates. Colony-forming units were counted after incubation at 30° C. for 24 h. The data were represented as the mean values±SD of three independent experiments.
# [8] = tested on: och1Δ mutant strain; experiment: Susceptibility of och1Δ mutant, CFU; format: cell-based, Candida albicans; details: och1Δ versus SN250, 1 h
# Experimental: The SN250 and och1Δ mutant strains were grown overnight in YPD broth at 30° C. The overnight culture was then subcultured into fresh YPD medium and grown for 5 h. Cells were treated with different concentration of peptides for 1 h. After treatment, samples were serially diluted in PBS and 15 μl of each diluent was spotted onto YPD agar plates. Colony-forming units were counted after 24 h incubation at 30° C. The data were represented as the mean values±SD of three independent experiments.
# [9] = tested on: SC5314 strain of Candida albicans; experiment: Intracellular ROS assay (DHE, MitoSOX Red, flow cytometry); format: cell-based; details: 0.25 μM, 1 h, 37° C.
# Experimental: The SC5314 strain of Candida albicans (wild type or WT) were grown overnight in YPD broth at 30° C. The overnight culture was then subcultured into fresh YPD medium and grown for 5 h. Cells were harvested by centrifugation, washed twice with 12.5 mM sodium acetate (NaOAc) and resuspended in 12.5 mM NaOAc to a concentration of 1*10^7 cells/ml. The cells were treated with various AMPs (0.25 μM) for 1 h at 37° C. After treatment, cells were washed twice with 12.5 mM NaOAc. Dihydroethidium (DHE) is a superoxide indicator, and MitoSOX Red (MitoSOX) was introduced for selective detection of superoxide in the mitochondria of live cells. The intracellular ROS was measured using DHE (20 μM) staining for 30 min and MitoSOX Red (5 μM) for 60 min in PBS. Fluorescent detection was performed by flow cytometry.
substance,measurement,setting,value
"AKRHHGYKRKFH-NH2 [P-113, AKRHHGYKRKFH-NH2]",Minimum Inhibitory Concentration,[1],6.25 µg/mL
same,Minimum Inhibitory Concentration,[2],0.78 µg/mL
same,content of the α-helical secondary structure,[3],2.9%
same,candidacidal activity,"[4]; 12.5 mM sodium acetate, 37° C., 1 hour",exhibited candidacidal activity
same,candidacidal activity,[4]; 62.25 and 93.75 mM salt,reduced activity
same,candidacidal activity,[4]; pH 4.5,activity was lost
same,candidacidal activity,[4]; pH 6 and 8,exhibited candidacidal activity
same,concentration causing 50% reduction in the metabolic activity (50% RMA),[5],> 300 µg/mL
same,"anti-Candida activity, dependence on concentration and time",[6],time-dependent and dose-dependent
same,candidacidal activity after proteinase K treatment of cells,[7],failed to kill C. albicans
same,susceptibility of och1Δ mutant to peptide,[8],resistant
same,intracellular ROS formation,[9],induced intracellular ROS formation
